According to patent US20110136801A1, “Novel Compounds” (Dainippon Sumitomo Pharma Co. Ltd., priority 2009, published 2011):

Tests used:
human TLR7 = molecular target: T1, human TLR7 (Homo sapiens, UniProt Q9NYK1); assay: Human TLR7 Assay (SEAP reporter in HEK293 cells); assay type: cell-based; details: HEK293 cell line expressing human TLR7 and pNiFty2-SEAP reporter, overnight incubation at 37° C., 0.1% DMSO; read-out: hTLR7 EC50;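 note: Read-out is secreted alkaline phosphatase made under an NFkB/ELAM-1 composite promoter, reporting TLR7-triggered NFkB activation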
T1 construct: expressed in transfected cells; host or cells: HEK293 cell line stably expressing the pNiFty2-SEAP reporter plasmid; TLR7 in pUNO vector, blasticidin selection
T1 sequence (Q9NYK1 27-1049): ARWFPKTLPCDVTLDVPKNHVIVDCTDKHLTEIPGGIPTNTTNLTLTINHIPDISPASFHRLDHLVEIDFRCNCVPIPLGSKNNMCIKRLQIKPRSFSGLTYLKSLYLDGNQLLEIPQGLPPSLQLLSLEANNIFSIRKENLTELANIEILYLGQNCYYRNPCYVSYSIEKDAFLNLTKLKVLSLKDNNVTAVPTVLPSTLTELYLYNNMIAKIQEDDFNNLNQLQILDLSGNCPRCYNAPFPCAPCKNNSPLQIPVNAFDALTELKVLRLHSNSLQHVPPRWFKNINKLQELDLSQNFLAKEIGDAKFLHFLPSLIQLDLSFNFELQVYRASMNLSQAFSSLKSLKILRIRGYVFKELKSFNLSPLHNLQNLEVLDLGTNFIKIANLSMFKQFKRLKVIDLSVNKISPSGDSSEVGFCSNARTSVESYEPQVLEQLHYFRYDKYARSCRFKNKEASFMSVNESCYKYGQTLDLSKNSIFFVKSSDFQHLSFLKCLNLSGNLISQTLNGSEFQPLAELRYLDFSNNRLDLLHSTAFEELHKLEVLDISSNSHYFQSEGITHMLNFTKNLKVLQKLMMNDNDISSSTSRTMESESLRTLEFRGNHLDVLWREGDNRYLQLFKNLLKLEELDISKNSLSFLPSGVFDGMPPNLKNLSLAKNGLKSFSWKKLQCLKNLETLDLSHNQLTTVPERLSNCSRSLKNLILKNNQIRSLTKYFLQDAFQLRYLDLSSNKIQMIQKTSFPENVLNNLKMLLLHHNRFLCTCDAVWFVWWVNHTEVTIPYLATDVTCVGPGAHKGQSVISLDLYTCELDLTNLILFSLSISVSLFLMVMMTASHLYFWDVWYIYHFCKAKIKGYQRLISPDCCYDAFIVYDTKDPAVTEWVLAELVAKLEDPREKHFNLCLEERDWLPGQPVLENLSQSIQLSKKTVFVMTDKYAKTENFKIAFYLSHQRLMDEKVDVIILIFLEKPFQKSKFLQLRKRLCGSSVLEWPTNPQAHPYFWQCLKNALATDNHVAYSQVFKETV
Excerpt: The most common variant sequence of human TLR7 (represented by the EMBL sequence AF240467) was cloned into the mammalian cell expression vector pUNO and transfected into a HEK293 cell line already stably expressing the pNiFty2-SEAP reporter plasmid; integration of the reporter gene was maintained by selection with the antibiotic zeocin. Transfectants with stable TLR7 expression were selected using the antibiotic blasticidin. In this reporter cell-line, expression of secreted alkaline phosphatase (SEAP) is controlled by an NFkB/ELAM-1 composite promoter comprising five NFkB sites combined with the proximal ELAM-1 promoter. TLR signaling leads to the translocation of NFkB and activation of the promoter results in expression of the SEAP gene. TLR7-specific activation was assessed by determining the level of SEAP produced following overnight incubation of the cells at 37° C. with the standard compound in the presence of 0.1% (v/v) dimethylsulfoxide (DMSO). Concentration dependent induction of SEAP production by compounds was expressed as the concentration of compound which produced half of the maximal level of SEAP induction for that compound (EC50).

Male Brown Norway rats = assay: Antigen-induced pulmonary inflammation in a rat asthma model (eosinophils and Th2 cytokines in BALF); assay type: in vivo; details: BALF 48 hours after challenge
Protocol: Rats were sensitized and challenged to produce allergic airway inflammation in a similar manner to that described by Underwood et al (British Journal of Pharmacology 2002; 137: 263-275, 2002). Male Brown Norway rats were sensitized subcutaneously with ovalbumin (OVA) and aluminum hydroxide on day 0, and challenged with aerosolized OVA solution on day 14. The test compound was administered twice intratracheally 24 hours before and 24 hours after the OVA-challenge and bronchoalveolar lavage fluid (BALF) was collected 48 hours after the OVA-challenge. Then eosinophils and Th2 cytokines (IL-5 and IL-13) in the BALF were measured to evaluate efficacy of the test compounds of this invention.

[1] = 0.1 mg/kg intratracheally 24 hours before and 24 hours after OVA-challenge
[2] = 1.0 mg/kg intratracheally 24 hours before and 24 hours after OVA-challenge
[3] = 0.03 mg/kg intratracheally 24 hours before and 24 hours after OVA-challenge
[4] = 0.3 mg/kg intratracheally 24 hours before and 24 hours after OVA-challenge
[5] = 0.01 mg/kg intratracheally 24 hours before and 24 hours after OVA-challenge

Row | Structure (SMILES) | EC50 (human TLR7) | Eosinophiles in BALF, inhibition (%) to OVA-Challenge control (Male Brown Norway rats; [1]) | IL-5 in BALF, inhibition (%) to OVA-Challenge control (Male Brown Norway rats; [1]) | IL-13 in BALF, inhibition (%) to OVA-Challenge control (Male Brown Norway rats; [1]) | Eosinophiles in BALF, inhibition (%) to OVA-Challenge control (Male Brown Norway rats; [2]) | IL-5 in BALF, inhibition (%) to OVA-Challenge control (Male Brown Norway rats; [2]) | IL-13 in BALF, inhibition (%) to OVA-Challenge control (Male Brown Norway rats; [2]) | Eosinophiles in BALF, inhibition (%) to OVA-Challenge control (Male Brown Norway rats; [3]) | IL-13 in BALF, inhibition (%) to OVA-Challenge control (Male Brown Norway rats; [3]) | Eosinophiles in BALF, inhibition (%) to OVA-Challenge control (Male Brown Norway rats; [4]) | IL-13 in BALF, inhibition (%) to OVA-Challenge control (Male Brown Norway rats; [4]) | Eosinophiles in BALF, inhibition (%) to OVA-Challenge control (Male Brown Norway rats; [5]) | IL-5 in BALF, inhibition (%) to OVA-Challenge control (Male Brown Norway rats; [5]) | IL-13 in BALF, inhibition (%) to OVA-Challenge control (Male Brown Norway rats; [5])
1 | CCN(CC)CC(=O)N(CCCn1c(CCOC)nc2c(N)nc3ccccc3c21)Cc1cccc(OC(C)(C)C(=O)OC)c1 [Example 56, Methyl 2-{3-[(N-{3-[4-amino-2-(2-methoxyethyl)-1H-imidazo[4,5-c]quinolin-1-yl]propyl}-2-{diethylamino}acetamido)methyl]phenoxy}-2-methylpropanoate] | 33.1 nM | 78% | 86% | 89% | 94% | 99% | 98% | – | – | – | – | – | – | –
2 | CCOCc1nc2c(N)nc3ccccc3c2n1CCCN(Cc1cccc(OCC(=O)OC(C)C)c1)C(=O)CN(CC)CC [Example 161, Isopropyl 2-{3-[(N-{3-[4-amino-2-(ethoxymethyl)-1H-imidazo[4,5-c]quinolin-1-yl]propyl}-2-{diethylamino}acetamido)methyl]phenoxy}acetate] | 262 nM | – | – | – | – | – | – | 54% | No effect | 66% | 64% | – | – | –
3 | CCN(CC)CC(=O)N(CCCn1c(CCOC)nc2c(N)nc3ccccc3c21)Cc1cccc(OCC(=O)OC)c1 [Example 20, Methyl (3-{[[3-(4-amino-2-(2-methoxyethyl)-1H-imidazo[4,5-c]quinolin-1-yl)propyl](N,N-diethylglycyl)amino]methyl}phenoxy)acetate] | 31.7 nM | 56% | No effect | 22% | – | – | – | – | – | – | – | 14% | No effect | No effect
4 | CCOCc1nc2c(N)nc3ccccc3c2n1CCCN(Cc1cccc(OC(C)(C)C(=O)OC)c1)C(=O)CN(CC)CC [Example 163, Methyl 2-{3-[(N-{3-[4-amino-2-(ethoxymethyl)-1H-imidazo[4,5-c]quinolin-1-yl]propyl}-2-{diethylamino}acetamido)methyl]phenoxy}-2-methylpropanoate] | 174 nM | – | – | – | – | – | – | 45% | 50% | 65% | 80% | – | – | –
5 | CCN(CC)CC(=O)N(CCCn1c(CCOC)nc2c(N)nc3ccccc3c21)Cc1cccc(OCC(=O)OC(C)C)c1F [Example 94, Isopropyl 2-{3-[(N-{3-[4-amino-2-(2-methoxyethyl)-1H-imidazo[4,5-c]quinolin-1-yl]propyl}-2-{diethylamino}acetamido)methy]-2-fluorophenoxy}acetate] | 27.9 nM | 68% | 34% | 50% | 91% | 90% | 82% | – | – | – | – | – | – | –
6 | CCN(CC)CC(=O)N(CCCn1c(CCOC)nc2c(N)nc3ccccc3c21)Cc1cccc(OCC(=O)OC(C)C)c1 [Example 27, Isopropyl 2-{3-[(N-{3-[4-amino-2-(2-methoxyethyl)-1H-imidazo[4,5-c]quinolin-1-yl]propyl}-2-(diethylamino)acetamido)methyl]phenoxy}acetate] | 66.1 nM | 64% | 41% | 72% | 89% | 90% | 88% | – | – | – | – | – | – | –
7 | CCN(CC)CC(=O)N(CCCn1c(CCOC)nc2c(N)nc3ccccc3c21)Cc1cccc(OCC(=O)OC2CCCC2)c1 [Example 80, Cyclopentyl 2-{3-[(N-{3-[4-amino-2-(2-methoxyethyl)-1H-imidazo[4,5-c]quinolin-1-yl]propyl}-2-{diethylamino}acetamido)methyl]phenoxy}acetate] | 56.6 nM | 15% | No effect | No effect | 89% | 91% | 83% | – | – | – | – | – | – | –
